Here are results for eleven molecules from ChEMBL document CHEMBL1150508, “Benzopyran potassium channel activators related to cromakalim - amide replacements at position 4” (1993).

The structures appear in SMILES notation.

Holding throughout (assay type): functional, Artery
Common to all, as to details: route oral

Assay [1] relates to Rattus norvegicus. The experiment in a line: Maximum fall in systolic blood pressure at interval of 1 hour over a period of 1-6 hour after dose of 1.0 mg/kg (p.o.) in spontaneous hypertensive rat (SHR). On the set-up: unit not given here.
For assay [2], the system named is Rattus norvegicus. The assay is described as follows: Maximum fall in systolic blood pressure at interval of 1 hour over a period of 1-6 hour after dose of 3.0 mg/kg (p.o.) in spontaneous hypertensive rat (SHR).
Assay [3] deals with Rattus norvegicus. The assay is described as follows: Maximum fall in systolic blood pressure at interval of 1 hour over a period of 1-6 hour after dose of 0.3 mg/kg (p.o.) in spontaneous hypertensive rat (SHR). More on the design: unit not given here.
For assay [4], the system named is Rattus norvegicus. The experiment in a line: Maximum fall in systolic blood pressure at interval of 1 hour over a period of 1-6 hour after dose of 0.1 mg/kg (p.o.) in spontaneous hypertensive rat (SHR).
In assay [5] the test system is Rattus norvegicus. The assay is described as follows: Maximum fall in systolic blood pressure at interval of 1 hour over a period of 1-6 hour after dose 1.0 mg/kg (p.o.) in spontaneous hypertensive rat (SHR).
Assay [6] deals with Rattus norvegicus. The experiment in a line: Maximum fall in systolic blood pressure at interval of 1 hour over a period of 1-6 hour after dose of 10 mg/kg (p.o.) in spontaneous hypertensive rat (SHR).

`CN/C(=N/C1=CC(C)(C)Oc2ccc(C#N)cc21)NC#N`: the entries for the “Max fall in blood pressure” value in the assay on Rattus norvegicus [1] and in the assay with Rattus norvegicus [2] were 17 and 15, respectively.
Consider `C/N=C(/NC(N)=O)NC1c2cc(C#N)ccc2OC(C)(C)C1O` (single isomer, unassigned), for which the “Max fall in blood pressure” value in the assay on Rattus norvegicus [2] is listed as 19.
On to `C/N=C(/NC#N)NC1c2cc(C#N)ccc2OC(C)(C)C1O` (single isomer, unassigned), for which the “Max fall in blood pressure” value in the assay on Rattus norvegicus [1] came out at 41; in the assay with Rattus norvegicus [3], 16.
As for `C/N=C(/NC#N)NC1c2cnccc2OC(C)(C)[C@H]1O` (stereo not given in full), in the assay on Rattus norvegicus [1], the “Max fall in blood pressure” value came to 25.
As to `CC1(C)Oc2ccc(C#N)cc2C(N2CCCC2=O)[C@H]1O` (stereo not given in full) [CROMAKALIM], the “Max fall in blood pressure” value with Rattus norvegicus [1] is recorded as 47; in the assay on Rattus norvegicus [4] it was 13; in the assay on Rattus norvegicus [3], 39.
With `CNC(=O)NC1c2cc(C#N)ccc2OC(C)(C)C1O` (single isomer, unassigned), the “Max fall in blood pressure” value in the assay with Rattus norvegicus [1] is 61; in the assay on Rattus norvegicus [4], 14; in the assay with Rattus norvegicus [3], 31.
With `CC1(C)Oc2ccc(C#N)cc2C(/N=C(/N)NC#N)C1O` (single isomer, unassigned), the “Max fall in blood pressure” value is 48 in the assay with Rattus norvegicus [1] and 24 with Rattus norvegicus [3].
As for `CC(C)(C)/N=C(/NC#N)NC1c2cc(C#N)ccc2OC(C)(C)C1O` (single isomer, unassigned), the entries for the “Max fall in blood pressure” value with Rattus norvegicus [5] and with Rattus norvegicus [6] were 8 and 10, respectively.
As to `C/N=C(/NC(C)=O)NC1c2cc(C#N)ccc2OC(C)(C)C1O` (single isomer, unassigned), the “Max fall in blood pressure” value in the assay with Rattus norvegicus [1] stood at 17.
For the molecule `CN/C(=C\[N+](=O)[O-])NC1c2cc(C#N)ccc2OC(C)(C)C1O` (single isomer, unassigned), the “Max fall in blood pressure” value in the assay on Rattus norvegicus [1] stood at 7; with Rattus norvegicus [6], 12.
Turning to `C/N=C(\NC1c2cc(C#N)ccc2OC(C)(C)[C@H]1O)NS(N)(=O)=O` (stereo not given in full), the “Max fall in blood pressure” value in the assay with Rattus norvegicus [2] came to 14.
